{
  "source": "patent US11154616B2",
  "about": "“Methods of treating locally advanced or metastatic breast cancers using PD-1 axis binding antagonists and taxanes” (Genentech, Inc., priority 2015, dated 2021)",
  "origin": "cited, not measured here",
  "system": "mTNBC",
  "settings": "monotherapy in mTNBC",
  "data": [
    {"substance": "MPDL3280A: humanized monoclonal anti-PD-L1 antibody that inhibits the binding of PD-L1 to PD-1", "values": [
      {"measurement": "clinical response as a monotherapy", "result": "durable responses"}
    ]}
  ]
}
